# Key:
# spleen cells = test: Spleen cell rosette test (RFC method); type: in vivo, mice; settings: 4 days after SRBC immunisation
# Description: (§1) Peripheral blood of mouse, spleen cells rosette formation method. This method was used to observe the effect of drugs on antigen combining cell during the earlier stage of immune, which was used to screen immunopotentiator or immunosuppressant. 7.5 mg cyclophosphamide (manufactured by Shanghai Twelve Pharmaceutical Factory) per 1 kg of body weight of male mouse was injected intraperitoneally. According the recommended method for screening immune drugs disclosed by a person, each group was administrated and immured by injection sheep red blood cell (SRBC). After 4 days, peripheral blood and spleen cell suspension (approximately 9 million spleen cells per milliliter) were obtained from mice, and 1% SRBC and 0.1 mL inactivated calf blood serum were added thereto, intermixed and centrifuged under low-speed for 10 minutes. Then 1% toluidine blue was added in minor amount along the wall of the test tubes. Cell pellet was slightly dispersed by pipette. Well-mixed cell suspension was dropped to blood cell counting chamber and the number of rosette in 1 mm^3 was counted under a microscope. Once lymphocyte was surrounded by more than five SRBC, it was regarded as a rosette.
# [1] = test system: peripheral blood of mouse; test: Peripheral blood rosette test (RFC method); type: in vivo, mice; settings: 4 days after SRBC immunisation
# Description: as §1
# mononuclear macrophage = test: Carbon particulate clearance test; type: in vivo; settings: mice, day 8 after seven days of drug; the values are: carbon clearance K value
# Source text: This method was used to observe the phagocytosis of mononuclear macrophage. Immunopotentiators can activate the macrophage of mice, and enhance the phagocytosis thereof. In contrast, immunosuppressants suppress these effects. Therefore, K values were increased or decreased by these two kinds of drugs, respectively
# Animals and drugs were same to those used above.
# Methods: After oral administration of drugs or physiological saline, or intramuscular injection of […], for seven days, 0.05 mL/10 g body weight injected through tail vein in mice on day 8. 20 μL blood was acquired from orbit vein, in 1 and 5 minutes after injection, added to 0.1%Na2CO3 respectively, and shaken up. Optical density was detected with Model-72 spectrophotometer at λ=680 nm. K values were calculated. The results were statistically analyzed and p values were assessed by t-test.
# [2] = test system: spleen, thymus and lymph node; test: Immune organs weight assay; type: in vivo, Kunming mice; settings: mice, day 8; leaf extract 84.8 g/1 kg orally 7 days; cortisone acetate 50 mg/1 kg i.m. 3 times
# Source text: Organ weights of Spleen, thymus and lymph node in animals are increased by most of the immunopotentiating agents, but decreased by immunosuppressive agents. So the assay was used to investigate the effect of the preparation containing leaf extract of A. hypogaea on immunological function.
# Animals: male and female (1:1) Kunming mice (provided by Shanghai Bioproduct Institute) were used.
# Drugs: leaf extract of A. hypogaea, provided by Shanghai Zhoaxiang Chinese Medicinal Herbs Factory. Injection of cortisone acetate was provided by Shanghai Ninth Pharmaceutical Factory.
# Methods: The animals were divided into groups at random after weighting. Mice were administered with 84.8 g/1 kg body weight diluted leaf extract of A. hypogaea (in terms of crude drugs) orally once per day for 7 days. 50 mg/1 kg cortisone acetate was injected intramuscularly (totally 3 times), on 2, 4, 6 days after the administration of leaf extract of A. hypogaea. 0.2 ml/10 g body weight physiological saline was administrated orally in control group, once per day for 7 days. Animals were sacrificed on the day 8 by bleeding from orbit vein. Then, spleen, thymus and lymph node (jaw, axillary fossa, groin) were taken out and weighed immediately. Each organic weight was shown as mg/10 g body weight.
# mice = settings: mouse, in vivo; cited from earlier work
smiles,measurement,setting,value
O=P1(N(CCCl)CCCl)NCCCO1 (stereo not shown) [cyclophosphamide],rosette percent,spleen cells,20.50 ± 4.29
same,rosette percent,[1],15.93 ± 3.35
"CC(=O)OCC(=O)[C@@]1(O)CC[C@H]2[C@@H]3CCC4=CC(=O)CC[C@]4(C)[C@H]3C(=O)C[C@@]21C [cortisone, cortisone acetate]",carbon clearance K value,mononuclear macrophage,0.00587 ± 0.0033
same,lymph node weight,[2],0.12 ± 0.05 mg/10 g body weight
same,thymus weight,[2],3.77 ± 0.83 mg/10 g body weight
same,weight of spleen,[2],2.58 ± 1.00 mg/10 g body weight
C=CC(C)(O)CCC=C(C)C (stereo not shown) [Linalool],sedative-hypnotic effect (literature),mice,positive effects on the sedative-hypnotic

# Reference: patent US20030118671A1, “Formulation containing peanut leaf extract and its preparation” (priority 1999, published 2003)
